For experiment [1], the system named is activated (GTP-bound) Ras in H358 human lung cancer cells. Nature of the experiment: Raf-RBD pull-down of active (GTP-bound) Ras. The experiment is classed as cell-based. The following applies: 5 μM, varying exposure times. How it is done:
H358 human lung cancer cells were grown in 6-well plates in DMEM medium containing 10% FBS. When the cells were about 70% confluent, the medium was replaced with DMEM containing 1% FBS. Two hours later, Ras inhibitors (kR-H6-48, HR-1, kR-4A-4, or kR-4B-2) were added to provide a final concentration of 5 μM.
After varying exposure times, the cells were rinsed with PBS and lysed. The lysates were cleared by centrifugation, incubated with immobilized Raf-RBD beads (which bind Ras) and analyzed by Western blot using manufacturer's protocols (Cytoskeleton, Inc., Denver, Colo.; Catalog No. BK008). The bands corresponding to active (GTP-bound) Ras were quantified with the help of MIPAV software.

In experiment [2] the test system is A549 human lung cancer cell line harboring constitutively active Ras mutant. As to the kind of experiment: MTT growth inhibition assay, A549. The experiment is classed as cell-based. How it is done: (§1) MCF-7 (breast cancer), T47D (breast cancer), Colo 205 (colon cancer), JM-1 (rat hepatoma), Sk Mel-2 (melanoma), PLC (human hepatoma), and HepG2 (human hepatoma) were obtained from American Type Cell Culture Collection. MCF-7 cells were grown in RPMI medium supplemented with 10% Fetal Bovine Serum. The remaining cell lines were grown in DMEM medium supplemented with 10% Fetal Bovine Serum. For the assay, cells were seeded into 96 well plates in medium containing 1% Fetal Bovine Serum and 100 μL of a cell suspension containing 5000 cells per well were used for each well. Cell growth was evaluated utilizing MTT ((3-(4,5-Dimethylthiazol-2-yl)-2,5-diphenyltetrazolium). The absorbance of the wells at 544 nm was determined by a FLUOstar/POLARstar Galaxy (BMG Lab Technologies GmbH) microplate reader.
(§2) The growth inhibitory activity of compounds was compared using the A549 human lung cancer cell line harboring constitutively active G12D Ras mutant with the help of an MTT assay. […] Stepwise extensions and truncations confirmed that the peptide had the optimal length (see Table 1).
(§3) The growth inhibitory activity of compounds was compared using the A549 human lung cancer cell line harboring constitutively active G12D Ras mutant with the help of an MTT assay.
For orientation: Tetrazolium dyes change colour on reduction, which living cells bring about.

Experiment [3] relates to Ras-dependent cancer cells (H358, SKBR3, SKOV3, ID8, MPR-178). As to the kind of experiment: MTT growth assay on Ras-dependent cancer cells. The experiment is classed as cell-based, human, murine. The following applies: 48 hours, 1% FBS. The method, then:
Ras-dependent cancer cells (H358 human lung cancer cells, SKBR3 human breast cancer cells, SKOV3 human ovarian cancer cells, ID8 murine ovarian cancer cells, and MPR-178 murine prostate cancer cells) were grown in DMEM medium containing 1% FBS and exposed to varying concentrations of Ras inhibitors (kR-H6-48 and HR-1) for 48 hours. Cell growth was evaluated utilizing an MTT ((3-(4,5-Dimethylthiazol-2-yl)-2,5-diphenyltetrazolium) assay. The absorbance of the wells at 544 nm was determined by a FLUOstar/POLARstar Galaxy (BMG Lab Technologies GmbH, Ortenberg, Germany) microplate reader. The assays were performed on untreated (control) and test cells. Cellular responses were calculated from the data using the following formula: 100×[(T−T0)/(C−T0)] for T>T0 and 100×[(T−T0)/T0] for T<T0, wherein T0 corresponds to cell density at the time of drug addition.

The test system of experiment [4] is H358 broncheoalveolar cells (K-Ras mutant). As to the kind of experiment: Growth inhibition, thoracic malignancy cell lines: H358. It is filed as cell-based, human.
Experiment [5] deals with H2009 lung adenocarcinoma cells (K-Ras mutant). Nature of the experiment: Growth inhibition, thoracic malignancy cell lines: H2009. The experiment is classed as cell-based.
Experiment [6] relates to H157 lung squamous cell carcinoma cells (K-Ras mutant). Nature of the experiment: Growth inhibition, thoracic malignancy cell lines: H157. The experiment is classed as cell-based.
Experiment [7] has as its system Calu3 lung adenocarcinoma cells (K-Ras WT). Nature of the experiment: Growth inhibition, thoracic malignancy cell lines: Calu3. It is filed as cell-based.
Experiment [8] deals with H2882 lung adenocarcinoma cells (K-Ras WT). As to the kind of experiment: Growth inhibition, thoracic malignancy cell lines: H2882. It is filed as cell-based.
Experiment [9] concerns H2461 malignant pleural mesothelioma cells (K-Ras WT). As to the kind of experiment: Growth inhibition, thoracic malignancy cell lines: H2461. It is filed as cell-based.
The test system of experiment [10] is HCC95 lung squamous cell carcinoma cells (K-Ras WT). As to the kind of experiment: Growth inhibition, thoracic malignancy cell lines: HCC95. The experiment is classed as cell-based.
The test system of experiment [11] is H2596 malignant pleural mesothelioma cells (K-Ras WT). As to the kind of experiment: Growth inhibition, thoracic malignancy cell lines: H2596. It is filed as cell-based.
Experiment [12] relates to H2373 malignant pleural mesothelioma cells (K-Ras WT). As to the kind of experiment: Growth inhibition, thoracic malignancy cell lines: H2373. It is filed as cell-based.
The subject of experiment [13] is HP-1 malignant pleural mesothelioma cells (K-Ras WT). Nature of the experiment: Growth inhibition, thoracic malignancy cell lines: HP-1. It is filed as cell-based. The following applies: HP-1, K-Ras WT.
In experiment [14] the test system is Calu 6 lung adenocarcinoma cells (K-Ras mutant). As to the kind of experiment: Growth inhibition, thoracic malignancy cell lines: Calu 6. It is filed as cell-based. The following applies: Calu 6, K-Ras mutant.
In experiment [15] the test system is Ras protein in H2009 and H2592 cells. Nature of the experiment: Western blot of Ras protein amount in cancer cells. The following applies: 0-3.0 μM, 18 hours. The experiment is classed as cell-based. The method, then: A further experiment was undertaken to determine the effect of analogs of helix 6 and HVR on the amount of K-Ras protein in cancer cells. H2009 (lung adenocarcinoma cells) and H2592 (plural mesothelioma cells) were exposed to varying concentrations (0-3.0 μM) of kR-4A-3, kR-4B-3, or kR-H6-3 for 18 hours. The cells then were lysed and the lysate was analyzed by Western blot using anti-Ras mAb (Cell Biolabs, Inc.).

Experiment [16] deals with H23 lung adenocarcinoma cells (K-Ras mutant). As to the kind of experiment: Growth inhibition, thoracic malignancy cell lines: H23. It is filed as cell-based.
Experiment [17] has as its system H460 large cell carcinoma cells (K-Ras mutant). As to the kind of experiment: Growth inhibition, thoracic malignancy cell lines: H460. It is filed as cell-based, human.
For experiment [18], the system named is HCC15 lung squamous cell carcinoma cells (K-Ras WT). Nature of the experiment: Growth inhibition, thoracic malignancy cell lines: HCC15. The experiment is classed as cell-based.
The subject of experiment [19] is human lung tumor cell lines (A549, H460, and H1944) and a mouse astrocytoma cell line (187436 tu2) expressing mutated K-Ras. Nature of the experiment: Growth inhibition in cell lines expressing mutated K-Ras (FIGS. 2 and 3). The following applies: A549, H460, H1944, 187436 tu2. The experiment is classed as cell-based. An excerpt:
The cell line was generated from astrocytoma developed in a transgenic mouse harboring a G12D mutation in K-Ras and inactivation of the Rb gene.

Experiment [20] concerns A549 human lung cancer cell line harboring constitutively active G12D Ras mutant. Nature of the experiment: MTT growth inhibition assay, A549. The experiment is classed as cell-based. How it is done: as §1, §2, §3
The next experiment concerns the target K-Ras in H2592 cells (Homo sapiens, UniProt P01116). The following applies: GI50 concentrations, 18 hours.
Experiment [21] has as its system Lewis lung carcinoma LL/2 (LLC1) cells. Nature of the experiment: Lewis lung carcinoma LLC1 isograft growth. It is filed as in vivo, female CB57Bl/6 mice. The following applies: 10 mg/kg s.c. near the tumor every second day. How it is done:
Lewis lung carcinoma LL/2 (LLC1) (ATCC Catalog No. CRL-1642) cells were grown in DMEM medium containing 10% FBS. Cells were trypsinized and suspended in PBS. 3×10^6 LLC1 cells in 200 μl PBS were injected subcutaneously to the right flank of 8 weeks old female CB57Bl/6 mice.
Ras inhibitor injections started 2 weeks after LLC1 injections when tumors were at least 3 mm in diameter. For injections, solid kR-H6-48 was initially dissolved in DMSO to yield 20 mg/mL stock solution. DMSO stocks were diluted 20-fold in PBS pre-warmed to 35-37° C. 200 μl of the resulting solution (10 mg/kg dose) was injected subcutaneously near the tumor(s) every second day. The control group received 200 μl of 5% DMSO in PBS. Tumor size was measured with a caliper before each injection. The mice were sacrificed when the tumors reached maximal allowed size.

Experiment [22] addresses 15N-labeled truncated K-Ras (1-166) (Homo sapiens, UniProt P01116). The following applies: 200 μM protein, 25° C., chemical shift perturbations Q25, N26, S32, T35, E37.
Protocol: The titration was followed by NMR ^15N-edited HSQC spectra acquired on a 600 MHz Bruker spectrometer at 25° C.
The mark [23] stands for this setting: A549, MTT, Table 2 HVR derivatives.
[24] abbreviates: A549, MTT, Table 1 helix 6 derivatives.

For orientation: GI50 means the concentration at which growth is held to half of that of the control.

Description for K-Ras in H2592 cells: Goat anti-mouse antibodies with Alexa Fluor TM 594 (red) were used to visualize the anti-Ras mouse mAb.

As for Ac-ESGPGLNLNSLNKK-e-Pal [HR-1], the “GTP-bound Ras (fraction of control)” value in experiment [1] is given as “reduction in activated (GTP-bound) Ras”. Besides, halving of growth in experiment [2] (setting [23]) (GI50) required 250 nM. For the same substance, the “growth of Ras-dependent cancer cells (cell number, percent of control)” value in [3] is on record as “growth inhibition of Ras-dependent cancer cells”.
Turning to Ac-KKKKKKSKTKK-e-Pal [kR-4B-3], the GI50 in experiment [4] stood at 2000 nM; in [5] it was 2900 nM; in experiment [6], 1500 nM; in experiment [2] (A549, K-Ras mutant, Table 3), 1450 nM; in experiment [2] (setting [23]), 1750 nM; in [7] it was 2200 nM. In addition, the concentration for 50% growth inhibition (GI50) in experiment [8] was 3000 nM; in experiment [9], more than 10000 nM; in experiment [10], 3300 nM; in [11] it was 6200 nM; in [12] it was 4800 nM; in experiment [13] it was 7300 nM. Moreover, the GI50 in [14] is 2700 nM; in [16] it was 2400 nM; in experiment [17], 1000 nM; in experiment [18] it was 3100 nM. In addition, the “amount of Ras protein” value in [15] was “reduced the amount of Ras protein in lung cancer cells in a concentration-dependent manner”.
On to “Ac-RYQRIERVLTYFAK-e-Pal (all D) [kR-H6-23]”, for which the “growth inhibition (cell number, percent of control)” value in [19] is listed as “growth inhibition”. This substance also showed a GI50 in [2] (setting [24]) of 25 ± 10 nM. The “fold more toxic to cancer cells than kR-H6-6” value in [20] (retroinverso version versus kR-H6-6) worked out at 10 fold.
In experiment [2] (setting [24]), “Ac-RYQRIQRVLTYFAK-e-Pal (all D) [kR-H6-30]” had a GI50 of 10 ± 5 nM. For the same substance, the “additional fold reduction in GI50” value in experiment [20] (Glu162 replaced with Gln) is given as 1.7 fold.
Take “Ac-YRLKKISKEEKTPGLNVKIKKK-e-Pal [kR-4A-3]”: the concentration for 50% growth inhibition (GI50) in experiment [4] was 2200 nM; in experiment [5], 2200 nM; in [6], 2400 nM; in experiment [2] (A549, K-Ras mutant, Table 3), 3100 nM; in [2] (setting [23]), 1900 nM; in experiment [7], 5900 nM. In addition, the GI50 in experiment [8] was 4000 nM; in experiment [9] it was more than 10000 nM; in experiment [10], 5100 nM; in [11], 8200 nM; in experiment [12], 6100 nM; in experiment [13], more than 10000 nM. The GI50 was determined as 3000 nM in experiment [14], 2600 nM in experiment [16], 1500 nM in [17] and 7400 nM in experiment [18]. Besides, the “Ras protein levels by immunostaining” value at K-Ras in H2592 cells is given as “reduction in protein levels”. Further, on K-Ras in H2592 cells, the “pattern of K-Ras distribution” value is reported as “lack of characteristic punctuate pattern of K-Ras distribution”. In addition, the “amount of Ras protein” value in experiment [15] was “reduced the amount of Ras protein in lung cancer cells in a concentration-dependent manner”.
On to Cap-YQRVQRVLTYFA (all D) [kR-H6-48], for which, in [1], the “GTP-bound Ras (fraction of control)” value is listed as “reduction in activated (GTP-bound) Ras”. Moreover, the LLC1 isograft growth result in [21] was “inhibited LLC1 isograft growth”. Also, in experiment [2] (setting [24]), the GI50 was 0.8 ± 0.5 nM. Further, in [3], the “growth of Ras-dependent cancer cells (cell number, percent of control)” value was “growth inhibition of Ras-dependent cancer cells”.
On to Pal-e-KAFYTLVREIRQYR [kR-H6-6], for which halving of growth in [2] (setting [24]) (GI50) required 250 nM. The “site of interaction with K-Ras” value in [22] is reported as “localized interaction of the peptide with the Switch I region of K-Ras”.

(Values after patent US9328142B2, “Lipopeptide inhibitors of RAS oncoproteins” (The United States of America, as represented by The …, priority 2011, dated 2016).)
